Results taken from ChEMBL document CHEMBL1201862, “PubChem BioAssay data set” (2004).
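Protocol summary: plate cells (96-well), add compound at 5 concentrations, incubate 48 h, interpolate endpoints linearly. GI50 marks 50% less growth.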 Active and inactive are the calls of the source. No stated cut-off is given here; in the data, active = GI50 up to about 1.1 µM and inactive = higher.

Experiments:
Assay in all cases: DTP human tumour cell line panel, 48 h
K562 = system: K562
SN12C = system: SN12C
T47D = system: T47D
MDA-MB-231 = system: MDA-MB-231
KM12 = system: KM12
HCT-116 = system: HCT-116
OVCAR-8 = system: OVCAR-8
BT-549 = system: BT-549
HCT-15 = system: HCT-15
OVCAR-5 = system: OVCAR-5
M14 = system: M14
MOLT-4 = system: MOLT-4
NCI-H226 = system: NCI-H226
SF-268 = system: SF-268
CCRF-CEM = system: CCRF-CEM
CAKI-1 = system: CAKI-1
COLO 205 = system: COLO 205

Structure (SMILES)	GI50 (K562)	GI50 (SN12C)	GI50 (T47D)	GI50 (MDA-MB-231)	GI50 (KM12)	GI50 (HCT-116)	GI50 (OVCAR-8)	GI50 (BT-549)	GI50 (HCT-15) [µM]	GI50 (OVCAR-5)	GI50 (M14)	GI50 (MOLT-4)	GI50 (NCI-H226)	GI50 (SF-268)	GI50 (CCRF-CEM)	GI50 (CAKI-1)	GI50 (COLO 205)
O=c1c(O)c(-c2cc(O)c(O)cc2O)oc2cc(O)c(C3OC(CO)C(O)C(O)C3O)c(O)c12 (stereo not drawn)	> 100 µM (inactive)	> 100 µM (inactive)	> 100 µM (inactive)	> 100 µM (inactive)	> 100 µM (inactive)	> 100 µM (inactive)	> 100 µM (inactive)	> 100 µM (inactive)	> 100	> 100 µM (inactive)	> 100 µM (inactive)	> 100 µM (inactive)	> 100 µM (inactive)	> 100 µM (inactive)	–	–	–
O=C(NC(C(F)(F)F)(C(F)(F)F)P(=O)(Cc1ccccc1)Cc1ccccc1)C(C(F)(F)F)C(F)(F)F	23 µM (inactive)	17.7 µM (inactive)	34.9 µM (inactive)	19.8 µM (inactive)	19.5 µM (inactive)	17.3 µM (inactive)	22.3 µM (inactive)	–	29.4	22.3 µM (inactive)	18.4 µM (inactive)	16.9 µM (inactive)	13.4 µM (inactive)	23.3 µM (inactive)	29.6 µM (inactive)	52.4 µM (inactive)	18.4 µM (inactive)
Cc1ccc(C)n1-c1ccccc1C1C=CN(C(=O)OC(C)(C)C)C=C1	32.3 µM (inactive)	33.6 µM (inactive)	–	19.7 µM (inactive)	14.9 µM (inactive)	15 µM (inactive)	32.7 µM (inactive)	32.7 µM (inactive)	20.6	29.6 µM (inactive)	28.8 µM (inactive)	21.7 µM (inactive)	14.1 µM (inactive)	33.6 µM (inactive)	35.3 µM (inactive)	33.3 µM (inactive)	17.2 µM (inactive)
COc1ccc2nc3c([N+](=O)[O-])ccc(NCCCN(C)C)c3c(N)c2c1	0.41 µM (active)	1.6 µM (inactive)	1.92 µM (inactive)	1.28 µM (inactive)	1.51 µM (inactive)	0.316 µM (active)	1.75 µM (inactive)	–	1.3	1.43 µM (inactive)	1.9 µM (inactive)	0.276 µM (active)	1.99 µM (inactive)	1.45 µM (inactive)	0.245 µM (active)	1.81 µM (inactive)	0.764 µM (active)
Fc1ccc(Oc2nc3ccccc3nc2-c2ccccc2)cc1	> 100 µM (inactive)	> 100 µM (inactive)	–	> 100 µM (inactive)	> 100 µM (inactive)	> 100 µM (inactive)	–	95.3 µM (inactive)	> 100	> 100 µM (inactive)	–	> 100 µM (inactive)	> 100 µM (inactive)	> 100 µM (inactive)	> 100 µM (inactive)	> 100 µM (inactive)	> 100 µM (inactive)
O=Cc1cn(CCCCCCCCCCCCn2cc(C=O)c3ccccc32)c2ccccc12	0.615 µM (active)	> 100 µM (inactive)	–	> 100 µM (inactive)	–	2.25 µM (inactive)	> 100 µM (inactive)	> 100 µM (inactive)	> 100	99.1 µM (inactive)	> 100 µM (inactive)	> 100 µM (inactive)	57.3 µM (inactive)	> 100 µM (inactive)	> 10 µM (inactive)	> 100 µM (inactive)	> 100 µM (inactive)
CS(=O)(=O)OCC1CCCCCCCCCCC12SCCCS2 (stereo not drawn)	> 100 µM (inactive)	> 100 µM (inactive)	> 100 µM (inactive)	> 100 µM (inactive)	> 100 µM (inactive)	> 100 µM (inactive)	> 100 µM (inactive)	–	> 100	> 100 µM (inactive)	> 100 µM (inactive)	> 100 µM (inactive)	> 100 µM (inactive)	> 100 µM (inactive)	> 100 µM (inactive)	> 100 µM (inactive)	> 100 µM (inactive)
O=c1[nH]nc(NCCc2ccccc2)c2nnn(Cc3ccccc3)c12	> 100 µM (inactive)	> 100 µM (inactive)	–	> 100 µM (inactive)	> 100 µM (inactive)	> 100 µM (inactive)	> 100 µM (inactive)	> 100 µM (inactive)	> 100	> 100 µM (inactive)	> 100 µM (inactive)	> 100 µM (inactive)	–	> 100 µM (inactive)	> 100 µM (inactive)	> 100 µM (inactive)	> 100 µM (inactive)
Cc1cccc2c(N)c3cccc(C(=O)NCCN4CCOCC4)c3nc12	0.203 µM (active)	0.364 µM (active)	–	0.759 µM (active)	0.301 µM (active)	0.0889 µM (active)	0.249 µM (active)	1.93 µM (inactive)	0.461	0.627 µM (active)	0.495 µM (active)	0.0278 µM (active)	–	0.0603 µM (active)	0.248 µM (active)	0.675 µM (active)	0.294 µM (active)
Cc1nc(Cl)c2sc(=S)n(-c3ccc(F)cc3)c2n1	7.6 µM (inactive)	5.52 µM (inactive)	–	7.98 µM (inactive)	12.7 µM (inactive)	1.75 µM (inactive)	14.6 µM (inactive)	2.59 µM (inactive)	3.21	10.8 µM (inactive)	2.11 µM (inactive)	–	17.4 µM (inactive)	1.81 µM (inactive)	2.72 µM (inactive)	1.56 µM (inactive)	4.47 µM (inactive)
CC(=O)O[C@H]1/C(=C/c2ccc(N(C)C)cc2)C[C@H]2[C@@H]3CC=C4C[C@@H](N5CCCC5)CC[C@]4(C)[C@H]3CC[C@]12C	> 100 µM (inactive)	> 100 µM (inactive)	65.6 µM (inactive)	> 100 µM (inactive)	–	> 100 µM (inactive)	> 100 µM (inactive)	> 100 µM (inactive)	> 100	> 100 µM (inactive)	> 100 µM (inactive)	> 100 µM (inactive)	> 100 µM (inactive)	> 100 µM (inactive)	–	–	> 100 µM (inactive)
Cc1ccc(CC(Cc2ccccc2C)C(=O)O)c(C(=O)O)c1 (stereo not drawn)	> 100 µM (inactive)	> 100 µM (inactive)	–	> 100 µM (inactive)	> 100 µM (inactive)	> 100 µM (inactive)	> 100 µM (inactive)	> 100 µM (inactive)	> 100	> 100 µM (inactive)	> 100 µM (inactive)	> 100 µM (inactive)	> 100 µM (inactive)	> 100 µM (inactive)	> 100 µM (inactive)	> 100 µM (inactive)	> 100 µM (inactive)
CC(O[Si](c1ccccc1)(c1ccccc1)C(C)(C)C)[C@H](NC(=O)OC(C)(C)C)C(=O)O (stereo partly drawn)	46.6 µM (inactive)	–	39.8 µM (inactive)	–	35.3 µM (inactive)	34.2 µM (inactive)	42 µM (inactive)	–	29	75.3 µM (inactive)	38.3 µM (inactive)	18.1 µM (inactive)	–	57.3 µM (inactive)	10.2 µM (inactive)	40.3 µM (inactive)	22.7 µM (inactive)
CON(C)C(=O)C(C)N(Cc1ccccc1)Cc1ccccc1 (stereo not drawn)	40.5 µM (inactive)	> 10 µM (inactive)	–	–	> 100 µM (inactive)	50.2 µM (inactive)	> 100 µM (inactive)	45.6 µM (inactive)	34.8	> 100 µM (inactive)	68.7 µM (inactive)	26.5 µM (inactive)	64.6 µM (inactive)	> 100 µM (inactive)	50.8 µM (inactive)	–	–
